Patent US5556744A, “Methods and compositions for diagnosing and treating certain HIV infected patients” (The Trustees of the University of Pennsylvania, priority 1994, dated 1996)

Key:
[1] = tested on: maternal HIV+ sera (antibodies); test: RIA / ELISA binding of maternal HIV+ sera to gp120 and gp41 peptides (Example 3); design: species or system human
Procedure, shortened: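 Maternal sera, diluted 1:50 and 1:500, were bound overnight at 4°C to peptides immobilized at 10 μg/ml (pH 9.6 carbonate) and blocked with 1% BSA. Read-out was ¹²⁵I-labelled anti-human IgG counts or HRP-TMB OD450. Signal with peptide minus without was expressed relative to seronegative serum.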

[2] = tested on: maternal sera (antibodies); test: ELISA peptide-binding of maternal sera (Example 6); design: species or system human
Procedure, shortened: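 HIV-1 envelope peptides averaging 16 amino acids, covering external and transmembrane glycoprotein, were probed by ELISA. Third-trimester maternal sera, classed as transmitter or non-transmitter by child diagnosis, were each run on at least 40 peptides. Values give percent of sera binding a peptide.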

For IGALFLGFGAAGST [Peptide 117], the “Binding of maternal HIV+ serum to peptide (sera/NHS ratio)” value (“Binding … (sera/NHS ratio)” for short) ([1]; Serum No. 1, Non-Transmission Group) was “- (specific OD450 or cpm of sera sample binding to peptide divided by the specific OD450 or cpm of NHS sample binding to peptide, which value is less than 2)”, the “Binding … (sera/NHS ratio)” value ([1]; Serum No. 2, Non-Transmission Group) was “- (specific OD450 or cpm of sera sample binding to peptide divided by the specific OD450 or cpm of NHS sample binding to peptide, which value is less than 2)” and the “Binding … (sera/NHS ratio)” value ([1]; Serum No. 3, Non-Transmission Group) was “- (specific OD450 or cpm of sera sample binding to peptide divided by the specific OD450 or cpm of NHS sample binding to peptide, which value is less than 2)”. For the same sequence, the “Binding … (sera/NHS ratio)” value ([1]; Serum No. 4, Transmission Group) was “- (specific OD450 or cpm of sera sample binding to peptide divided by the specific OD450 or cpm of NHS sample binding to peptide, which value is less than 2)”, the “Binding … (sera/NHS ratio)” value ([1]; Serum No. 5, Transmission Group) was “- (specific OD450 or cpm of sera sample binding to peptide divided by the specific OD450 or cpm of NHS sample binding to peptide, which value is less than 2)” and the “Binding … (sera/NHS ratio)” value ([1]; Serum No. 6, Non-Transmission Group) was “- (specific OD450 or cpm of sera sample binding to peptide divided by the specific OD450 or cpm of NHS sample binding to peptide, which value is less than 2)”. The “Binding … (sera/NHS ratio)” value ([1]; Serum No. 7, Non-Transmission Group) was “- (specific OD450 or cpm of sera sample binding to peptide divided by the specific OD450 or cpm of NHS sample binding to peptide, which value is less than 2)”, the “Binding … (sera/NHS ratio)” value ([1]; Serum No. 8, Non-Transmission Group) was “- (specific OD450 or cpm of sera sample binding to peptide divided by the specific OD450 or cpm of NHS sample binding to peptide, which value is less than 2)” and the “Binding … (sera/NHS ratio)” value ([1]; Serum No. 9, Non-Transmission Group) was “- (specific OD450 or cpm of sera sample binding to peptide divided by the specific OD450 or cpm of NHS sample binding to peptide, which value is less than 2)”. For the same sequence, the “Binding … (sera/NHS ratio)” value ([1]; Serum No. 10, Transmission Group) was “- (specific OD450 or cpm of sera sample binding to peptide divided by the specific OD450 or cpm of NHS sample binding to peptide, which value is less than 2)”, the “Binding … (sera/NHS ratio)” value ([1]; Serum No. 11, Non-Transmission Group) was “- (specific OD450 or cpm of sera sample binding to peptide divided by the specific OD450 or cpm of NHS sample binding to peptide, which value is less than 2)” and the “Binding … (sera/NHS ratio)” value ([1]; Serum No. 12, Non-Transmission Group) was “- (specific OD450 or cpm of sera sample binding to peptide divided by the specific OD450 or cpm of NHS sample binding to peptide, which value is less than 2)”. The “Binding … (sera/NHS ratio)” value ([1]; Serum No. 13, Transmission Group) was “- (specific OD450 or cpm of sera sample binding to peptide divided by the specific OD450 or cpm of NHS sample binding to peptide, which value is less than 2)”, the “Binding … (sera/NHS ratio)” value ([1]; Serum No. 14, Transmission Group) was “- (specific OD450 or cpm of sera sample binding to peptide divided by the specific OD450 or cpm of NHS sample binding to peptide, which value is less than 2)” and the “Binding … (sera/NHS ratio)” value ([1]; Serum No. 15, Transmission Group) was “- (specific OD450 or cpm of sera sample binding to peptide divided by the specific OD450 or cpm of NHS sample binding to peptide, which value is less than 2)”. The “Binding … (sera/NHS ratio)” value ([1]; Serum No. 16, Non-Transmission Group) was “- (specific OD450 or cpm of sera sample binding to peptide divided by the specific OD450 or cpm of NHS sample binding to peptide, which value is less than 2)”, the “Binding … (sera/NHS ratio)” value ([1]; Serum No. 17, Non-Transmission Group) was “- (specific OD450 or cpm of sera sample binding to peptide divided by the specific OD450 or cpm of NHS sample binding to peptide, which value is less than 2)” and the “Binding … (sera/NHS ratio)” value ([1]; Serum No. 18, Non-Transmission Group) was “- (specific OD450 or cpm of sera sample binding to peptide divided by the specific OD450 or cpm of NHS sample binding to peptide, which value is less than 2)”. For the same sequence, the “Binding … (sera/NHS ratio)” value ([1]; Serum No. 19, Transmission Group) was “- (specific OD450 or cpm of sera sample binding to peptide divided by the specific OD450 or cpm of NHS sample binding to peptide, which value is less than 2)”, the “Binding … (sera/NHS ratio)” value ([1]; Serum No. 20, Non-Transmission Group) was “- (specific OD450 or cpm of sera sample binding to peptide divided by the specific OD450 or cpm of NHS sample binding to peptide, which value is less than 2)” and the “Number of Non-Transmitters which bound to peptide” value ([2]; Non-Transmitters, N = 12) was 2. The “Percent of Non-Transmitters which bound to peptide” value ([2]; Non-Transmitters, N = 12) was 16.7%, the “Number of Transmitters which bound to peptide” value ([2]; Transmitters, N = 4) was 0 and the “Percent of Transmitters which bound to peptide” value ([2]; Transmitters, N = 4) was 0%.
